# Test results as given in article PMC11582173, “Synthesis, cytotoxicity, anti-inflammatory, anti-metastatic and anti-oxidant activities of novel chalcones incorporating 2-phenoxy-N-arylacetamide and thiophene moieties: induction of apoptosis in MCF7 and HEP2 cells” (Naunyn-Schmiedeberg's Archives of Pharmacology, 2024).
# Several values for one entry are separate records, joined by “and”; a condition that tells them apart may be missing. Identical values can stand only once.
# Columns and labels:
# KI-67 gene = test: Real-time PCR, KI-67 gene expression; type: cell-based, human; details: relative to untreated control (1), normalized to GAPDH
# Protocol: The expression level of the following six genes (Ki-67, Survivin, Interleukin-1 beta (IL-1B), Interleukin-6 (IL-6), Cyclooxygenase-2 (COX-2) and protein kinase B (AKT1)) was determined in MCF7 and HEP2 treated with the IC50 of compound 5c. The untreated cells were used as a negative control for comparison purposes. […] Ki-67 is a popular proliferation marker for human tumor cells. […] Survivin is an inhibitor of apoptotic protein (IAP) family member, which is essential for cell division. The lowering of the expression of survivin inhibited tumor development, triggered apoptosis, and made tumor cells more susceptible to radiation and chemotherapy (Albadari and Li [2023]). […] IL-1B is a pleiotropic mediator of inflammation, which is produced in response to a variety of stressors (Aarreberg et al. [2019]). […] IL-6 is a pro-inflammatory cytokine that plays a significant role in the proliferation and differentiation of human cells. It promotes the production of numerous proteins involved in acute inflammation (Uciechowski and Dempke [2020]). […]
# The expression level of the following six genes (Ki-67, survivin, AKT1, IL-6, COX2, and IL-1B) was examined using real-time polymerase chain reaction (qPCR) (Mohamed et al. [2023a]). […] The cycle threshold (Ct) was determined automatically. […]
# HEP2 cells = test: Flow cytometric analysis of cell cycle, HEP2; type: cell-based, human; details: HEP2, IC50 of 5c, 48 h
# Protocol: In the G0-G1 stage, the percentage of 5c-treated cells declined to 55.4% as opposed to 57.6% of untreated control cells. It was found in a previous work that lutein-induced G2/M phase arrest in A549 and PC-9 cells (Di et al. [2019]).
# In DMEM-supplemented media, cells were plated in 12-well plates at a cell density of 6–8×10^5 per well. After twenty-four hours, cells were cultured for an additional 48 hours with the IC50 of the target compound. The untreated cells were used as a negative control. After 48 h of incubation, the treated cells were centrifuged at 1,200 rpm and 4 °C for 10 min. After discarding the supernatant, the wells were then given a single phosphate-buffered saline (PBS) wash and then centrifuged for 10 min at 1,200 rpm. Trypsin/EDTA was used to collect the cells, and after one PBS wash, they were resuspended in 0.5 mL of 0.05% Triton X-100 for 10 min at room temperature. Each cell suspension was stained by being given 1 mL of 50 µg/mL propidium iodide (PI) to be left at room temperature in the darkness for 20 minutes. The analysis of the cell cycle was done by a flow cytometer (Becton Dickenson (BD) FACSCalibur, USA) (Michalkova et al. [2022]).
smiles,measurement,setting,value
"COc1ccc(NC(=O)COc2ccc(C=CC(=O)c3cccs3)cc2)cc1 [Compound 5c, N-(4-Methoxyphenyl)-2-(4-(3-oxo-3-(thiophen-2-yl)prop-1-en-1-yl)phenoxy)acetamide]",KI67 expression folding,KI-67 gene; HEP2 cells treated with IC50 of 5c,0.648±0.015 fold
same,KI67 expression folding,KI-67 gene; MCF7 cells treated with IC50 of 5c,0.352±0.0172 fold
same,Percentage of DNA in G2-M phase,HEP2 cells; untreated control 2.205±0.10607,3.56% and 3.565±0.1485%
same,Percentage of DNA in S phase,HEP2 cells; untreated control 40.095±0.36062,40.96% and 40.96±0.08485%
same,Percentage of DNA in G0-G1 phase,HEP2 cells; untreated control 57.67±0.21213,55.4% and 55.475±0.233%
